Test results: ChEMBL document CHEMBL2073998, “Piperine, a major constituent of black pepper, inhibits human P-glycoprotein and CYP3A4” (J Pharmacol Exp Ther, 2002)

What was measured:
[1] = target: T1, ATP-dependent translocase ABCB1 (Homo sapiens, UniProt P08183); assay: TP_TRANSPORTER: inhibition of Cyclosporin A transepithelial transport (basal to apical) (Cyclosporin A: 1 uM) in Caco-2 cells; format: functional, cell-based
[2] = target: T1, ATP-dependent translocase ABCB1; assay: TP_TRANSPORTER: inhibition of Digoxin transepithelial transport (basal to apical) (Digoxin: 5 uM) in Caco-2 cells; format: functional, cell-based

T1 sequence (P08183 whole entry): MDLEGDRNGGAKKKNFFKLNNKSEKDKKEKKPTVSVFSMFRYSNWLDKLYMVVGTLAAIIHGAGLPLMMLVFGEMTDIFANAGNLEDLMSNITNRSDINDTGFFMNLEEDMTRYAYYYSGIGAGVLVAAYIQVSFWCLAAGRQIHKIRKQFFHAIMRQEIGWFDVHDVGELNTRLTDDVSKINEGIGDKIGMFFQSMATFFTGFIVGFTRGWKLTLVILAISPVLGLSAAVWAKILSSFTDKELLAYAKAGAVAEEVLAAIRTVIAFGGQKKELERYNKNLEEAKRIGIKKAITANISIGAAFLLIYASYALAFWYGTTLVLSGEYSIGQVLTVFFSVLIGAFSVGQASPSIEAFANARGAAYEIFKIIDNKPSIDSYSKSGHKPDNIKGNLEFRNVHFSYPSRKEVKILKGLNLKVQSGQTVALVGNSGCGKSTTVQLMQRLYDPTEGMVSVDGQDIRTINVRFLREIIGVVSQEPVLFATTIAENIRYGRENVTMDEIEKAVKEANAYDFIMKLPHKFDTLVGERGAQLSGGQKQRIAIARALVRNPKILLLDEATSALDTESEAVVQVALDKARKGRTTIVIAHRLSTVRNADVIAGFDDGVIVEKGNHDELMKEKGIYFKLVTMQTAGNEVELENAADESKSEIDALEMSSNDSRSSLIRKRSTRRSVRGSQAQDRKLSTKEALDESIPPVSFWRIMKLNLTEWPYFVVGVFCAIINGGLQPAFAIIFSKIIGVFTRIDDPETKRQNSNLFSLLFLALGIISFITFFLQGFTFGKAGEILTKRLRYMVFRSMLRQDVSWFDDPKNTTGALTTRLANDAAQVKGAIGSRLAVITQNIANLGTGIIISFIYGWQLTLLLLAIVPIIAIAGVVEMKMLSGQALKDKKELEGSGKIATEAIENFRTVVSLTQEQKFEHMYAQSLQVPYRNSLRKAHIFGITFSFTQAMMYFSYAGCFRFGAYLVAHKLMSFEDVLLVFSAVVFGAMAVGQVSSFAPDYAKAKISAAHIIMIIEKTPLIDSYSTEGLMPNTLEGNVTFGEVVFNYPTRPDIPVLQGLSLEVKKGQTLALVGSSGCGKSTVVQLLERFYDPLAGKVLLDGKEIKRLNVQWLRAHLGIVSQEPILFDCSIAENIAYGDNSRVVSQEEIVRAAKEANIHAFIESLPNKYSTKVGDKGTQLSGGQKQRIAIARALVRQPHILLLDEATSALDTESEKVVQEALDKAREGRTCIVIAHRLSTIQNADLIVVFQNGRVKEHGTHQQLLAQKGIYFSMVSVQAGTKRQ

O=C(/C=C/C=C/c1ccc2c(c1)OCO2)N1CCCCC1 [PIPERINE]
IC50 [1]: 74.1 µM | IC50 [2]: 15.5 µM
